The results in this text go back to ChEMBL document CHEMBL1201862, “PubChem BioAssay data set” (2004).

Experiment [1] concerns the target Induced myeloid leukemia cell differentiation protein Mcl-1 (Homo sapiens, UniProt Q07820). It counts as functional.
Experiment [2] deals with T1, Mannose-6-phosphate isomerase (Homo sapiens, UniProt P34949).
T1 sequence (P34949 whole entry): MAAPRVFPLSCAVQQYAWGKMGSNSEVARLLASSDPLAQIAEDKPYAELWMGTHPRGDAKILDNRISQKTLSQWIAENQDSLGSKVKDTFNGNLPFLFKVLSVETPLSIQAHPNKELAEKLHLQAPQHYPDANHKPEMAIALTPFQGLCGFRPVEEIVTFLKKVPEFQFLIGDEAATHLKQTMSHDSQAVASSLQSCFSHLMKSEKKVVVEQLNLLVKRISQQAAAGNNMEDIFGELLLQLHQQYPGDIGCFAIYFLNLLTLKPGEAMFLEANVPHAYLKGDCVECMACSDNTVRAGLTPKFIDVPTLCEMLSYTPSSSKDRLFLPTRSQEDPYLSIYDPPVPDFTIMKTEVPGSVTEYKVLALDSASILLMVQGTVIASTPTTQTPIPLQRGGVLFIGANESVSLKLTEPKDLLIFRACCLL
The experiment can be described thus: human PMI inhibitors, high substrate, primary screen, biochemical, fluorescence intensity, high mannose 6-phosphate (AID 1220).

For another experiment, the target named is Large T antigen (Simian virus 40, UniProt P03070). It counts as functional, Betapolyomavirus macacae.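 Further: Confirmatory-stage PubChem screen for compounds that inhibit SV40 T antigen.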
Chain of Large T antigen (P03070 whole entry): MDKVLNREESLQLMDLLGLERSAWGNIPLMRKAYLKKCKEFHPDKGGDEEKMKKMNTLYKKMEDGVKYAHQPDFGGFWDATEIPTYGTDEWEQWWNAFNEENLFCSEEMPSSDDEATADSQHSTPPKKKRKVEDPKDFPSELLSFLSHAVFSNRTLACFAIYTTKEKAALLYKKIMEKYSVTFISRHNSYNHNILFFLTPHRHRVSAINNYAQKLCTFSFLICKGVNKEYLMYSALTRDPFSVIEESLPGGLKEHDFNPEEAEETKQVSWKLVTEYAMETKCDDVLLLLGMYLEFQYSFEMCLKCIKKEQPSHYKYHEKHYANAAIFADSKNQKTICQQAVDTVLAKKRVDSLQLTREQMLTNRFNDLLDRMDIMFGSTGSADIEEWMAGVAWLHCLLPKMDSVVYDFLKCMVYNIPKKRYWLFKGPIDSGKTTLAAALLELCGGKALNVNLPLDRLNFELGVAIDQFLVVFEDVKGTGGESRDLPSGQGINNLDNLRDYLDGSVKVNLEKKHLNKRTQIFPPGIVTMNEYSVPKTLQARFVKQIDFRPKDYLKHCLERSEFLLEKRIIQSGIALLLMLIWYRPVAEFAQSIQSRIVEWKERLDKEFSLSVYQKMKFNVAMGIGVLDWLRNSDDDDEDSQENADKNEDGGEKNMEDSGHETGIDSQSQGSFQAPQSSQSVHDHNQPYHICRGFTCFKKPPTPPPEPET
Experiment [3] addresses T2, Oxysterols receptor LXR-beta (Homo sapiens, UniProt P55055).
T2 sequence (P55055 whole entry): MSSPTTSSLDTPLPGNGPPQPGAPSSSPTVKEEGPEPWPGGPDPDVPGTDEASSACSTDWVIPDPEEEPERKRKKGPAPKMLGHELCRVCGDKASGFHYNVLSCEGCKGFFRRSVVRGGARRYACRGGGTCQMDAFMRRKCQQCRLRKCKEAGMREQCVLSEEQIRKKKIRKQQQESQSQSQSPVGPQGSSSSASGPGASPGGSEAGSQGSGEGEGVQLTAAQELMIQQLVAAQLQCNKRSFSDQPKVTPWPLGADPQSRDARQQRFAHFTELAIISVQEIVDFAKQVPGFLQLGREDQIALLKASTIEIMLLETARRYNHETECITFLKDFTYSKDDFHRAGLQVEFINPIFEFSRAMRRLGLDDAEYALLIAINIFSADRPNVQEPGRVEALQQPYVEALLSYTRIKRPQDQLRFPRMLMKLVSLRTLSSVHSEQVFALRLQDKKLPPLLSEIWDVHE
Format: functional, cell-based.

Experiment [4] is described as follows: cells. It counts as functional, cell-based.
Experiment [5] deals with T3, Trace amine-associated receptor 1 (Homo sapiens, UniProt Q96RJ0).
T3 sequence (Q96RJ0 whole entry): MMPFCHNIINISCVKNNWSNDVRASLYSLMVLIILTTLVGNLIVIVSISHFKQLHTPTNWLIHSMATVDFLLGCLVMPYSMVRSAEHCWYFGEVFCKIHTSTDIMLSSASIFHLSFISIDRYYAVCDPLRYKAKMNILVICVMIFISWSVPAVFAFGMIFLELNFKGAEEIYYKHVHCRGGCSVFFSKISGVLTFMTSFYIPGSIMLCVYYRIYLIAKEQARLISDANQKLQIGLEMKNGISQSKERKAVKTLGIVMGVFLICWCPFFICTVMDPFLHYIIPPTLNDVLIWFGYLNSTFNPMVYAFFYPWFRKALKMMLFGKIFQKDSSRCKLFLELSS
The experiment in a line: Counterscreen for agonists of the human trace amine associated receptor 1 (hTAAR1): Fluorescence-based cell-based high throughput dose response assay to identify hTAAR1 agonist that also desensitize TAAR1 receptor response. Format: functional. A general note: The purpose of a counterscreen is to sort out artefacts and off-target activity.

The target of experiment [6] is T3, Trace amine-associated receptor 1. The experiment in a line: Fluorescence-based cell-based high throughput dose response assay to identify agonists of the human trace amine associated receptor 1 (TAAR1). It counts as functional.
A short description of experiment [7]: cells. It counts as functional, cell-based. This is another data set of the same source.
Another experiment concerns the target Prothrombin (Homo sapiens, UniProt P00734). The experiment in a line: Thrombin 1536 HTS Dose Response Confirmation. [Related pubchem assays: 1046 (Thrombin 1536 HTS; hits were confirmed in this assay)]. It counts as functional.
In a further experiment the target is T4, Estrogen receptor (Homo sapiens, UniProt P03372).
T4 sequence (P03372 whole entry): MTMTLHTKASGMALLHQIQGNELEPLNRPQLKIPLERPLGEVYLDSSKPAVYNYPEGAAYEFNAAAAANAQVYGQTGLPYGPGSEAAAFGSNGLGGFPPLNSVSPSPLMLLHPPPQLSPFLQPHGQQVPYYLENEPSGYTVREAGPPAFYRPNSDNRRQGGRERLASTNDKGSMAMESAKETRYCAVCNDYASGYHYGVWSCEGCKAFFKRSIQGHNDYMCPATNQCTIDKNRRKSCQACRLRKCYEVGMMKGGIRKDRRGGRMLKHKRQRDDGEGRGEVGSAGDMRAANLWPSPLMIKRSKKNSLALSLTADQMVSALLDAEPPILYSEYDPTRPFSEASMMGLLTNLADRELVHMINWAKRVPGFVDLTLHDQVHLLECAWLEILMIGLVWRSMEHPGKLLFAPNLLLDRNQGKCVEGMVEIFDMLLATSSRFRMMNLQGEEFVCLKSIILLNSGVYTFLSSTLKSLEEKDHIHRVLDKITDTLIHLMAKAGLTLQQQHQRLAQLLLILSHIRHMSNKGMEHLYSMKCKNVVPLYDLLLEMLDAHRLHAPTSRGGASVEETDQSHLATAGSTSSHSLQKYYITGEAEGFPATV

Another experiment addresses Estrogen receptor beta (Homo sapiens, UniProt Q92731).
Another experiment has as its target T5, Leucine aminopeptidase (Plasmodium falciparum 3D7, UniProt Q8IL11).
T5 sequence (Q8IL11 whole entry): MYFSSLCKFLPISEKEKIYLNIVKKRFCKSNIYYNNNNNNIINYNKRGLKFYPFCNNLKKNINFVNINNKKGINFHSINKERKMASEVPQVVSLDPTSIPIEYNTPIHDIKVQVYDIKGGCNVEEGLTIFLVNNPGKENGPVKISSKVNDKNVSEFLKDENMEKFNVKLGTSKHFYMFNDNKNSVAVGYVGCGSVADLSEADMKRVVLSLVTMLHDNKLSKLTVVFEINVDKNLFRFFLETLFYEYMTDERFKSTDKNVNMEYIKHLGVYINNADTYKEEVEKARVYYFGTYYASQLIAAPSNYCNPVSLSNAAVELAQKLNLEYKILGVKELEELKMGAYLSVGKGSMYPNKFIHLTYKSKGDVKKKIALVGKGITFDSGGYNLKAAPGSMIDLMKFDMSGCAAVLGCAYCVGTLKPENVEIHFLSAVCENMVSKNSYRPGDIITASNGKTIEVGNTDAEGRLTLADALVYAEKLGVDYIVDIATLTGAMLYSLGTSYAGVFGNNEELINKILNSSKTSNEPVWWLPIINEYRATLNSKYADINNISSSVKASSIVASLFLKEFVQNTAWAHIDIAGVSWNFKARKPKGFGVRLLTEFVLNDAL
The experiment can be described thus: P. falciparum M17LAP inhibitors, primary screen, biochemical, fluorogenic H-Leu-NHMec substrate, 1536-well (AID 1619). Format: functional.

Experiment [8] addresses T6, Rac GTPase-activating protein 1 (Homo sapiens, UniProt Q9H0H5).
T6 sequence (Q9H0H5 whole entry): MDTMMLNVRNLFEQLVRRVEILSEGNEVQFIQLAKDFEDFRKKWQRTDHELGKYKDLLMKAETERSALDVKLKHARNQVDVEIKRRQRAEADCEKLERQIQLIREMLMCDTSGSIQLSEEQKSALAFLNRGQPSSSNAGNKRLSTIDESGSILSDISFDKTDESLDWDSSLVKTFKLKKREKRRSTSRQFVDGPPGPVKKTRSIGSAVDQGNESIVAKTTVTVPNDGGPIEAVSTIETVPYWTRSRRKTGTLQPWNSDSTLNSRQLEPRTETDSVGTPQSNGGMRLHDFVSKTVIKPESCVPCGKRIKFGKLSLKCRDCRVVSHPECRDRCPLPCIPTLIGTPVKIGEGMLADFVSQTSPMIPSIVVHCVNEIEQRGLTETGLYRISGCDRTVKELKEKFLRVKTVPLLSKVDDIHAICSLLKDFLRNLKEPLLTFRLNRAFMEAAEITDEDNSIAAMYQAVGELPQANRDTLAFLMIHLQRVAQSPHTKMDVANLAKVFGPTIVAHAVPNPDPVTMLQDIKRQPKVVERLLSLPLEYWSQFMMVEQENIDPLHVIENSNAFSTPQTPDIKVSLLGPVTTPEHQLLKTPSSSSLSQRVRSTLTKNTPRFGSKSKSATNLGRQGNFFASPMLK
The experiment can be described thus: MgcRacGAP GTPase-activating activity inhibitors, confirmation, biochemical, ADP Hunter fluorescence, primary and confirmatory (AID 624330). It counts as functional.

A short description of experiment [9]: HeLa cell cytotoxicity, dose response, cytotoxicity control for MgcRacGAP inhibitor project (AID 624300). It counts as functional.
The target of experiment [10] is T7, Sentrin-specific protease 8 (Homo sapiens, UniProt Q96LD8).
T7 sequence (Q96LD8 whole entry): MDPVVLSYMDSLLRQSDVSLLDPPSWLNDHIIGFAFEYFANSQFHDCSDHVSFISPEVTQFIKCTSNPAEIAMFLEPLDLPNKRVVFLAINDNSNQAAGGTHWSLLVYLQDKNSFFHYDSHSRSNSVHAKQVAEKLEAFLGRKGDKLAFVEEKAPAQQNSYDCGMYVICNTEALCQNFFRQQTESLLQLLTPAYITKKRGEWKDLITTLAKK
Format: functional.

Experiment [11] deals with T7, Sentrin-specific protease 8. Format: functional. The source holds these as a separate data set.
The target in the next experiment is Cytochrome P450 2C19 (Homo sapiens, UniProt P33261). The experiment can be described thus: Cytochrome panel assay with activity outcomes. Panel member name: p450-cyp2c19 Compounds with AC50 equal or less than 10 uM are considered active. It counts as functional. The following applies: read-out: AC50.
Chain of Cytochrome P450 2C19 (P33261 whole entry): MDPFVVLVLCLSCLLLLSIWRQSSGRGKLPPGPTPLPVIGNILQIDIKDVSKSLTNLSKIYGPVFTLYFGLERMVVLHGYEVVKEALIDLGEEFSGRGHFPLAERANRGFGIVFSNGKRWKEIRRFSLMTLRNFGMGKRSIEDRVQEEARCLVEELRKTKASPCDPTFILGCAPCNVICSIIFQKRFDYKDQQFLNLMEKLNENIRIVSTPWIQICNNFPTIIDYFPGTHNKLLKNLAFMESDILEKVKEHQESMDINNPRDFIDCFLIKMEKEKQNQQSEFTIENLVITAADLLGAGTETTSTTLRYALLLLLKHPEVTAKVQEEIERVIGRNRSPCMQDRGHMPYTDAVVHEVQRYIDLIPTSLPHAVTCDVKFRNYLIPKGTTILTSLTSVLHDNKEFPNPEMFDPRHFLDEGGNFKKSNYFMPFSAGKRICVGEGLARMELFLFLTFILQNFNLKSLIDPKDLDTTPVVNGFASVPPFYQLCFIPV

The source made the active and inactive calls.

Chain of Estrogen receptor beta (Q92731 whole entry): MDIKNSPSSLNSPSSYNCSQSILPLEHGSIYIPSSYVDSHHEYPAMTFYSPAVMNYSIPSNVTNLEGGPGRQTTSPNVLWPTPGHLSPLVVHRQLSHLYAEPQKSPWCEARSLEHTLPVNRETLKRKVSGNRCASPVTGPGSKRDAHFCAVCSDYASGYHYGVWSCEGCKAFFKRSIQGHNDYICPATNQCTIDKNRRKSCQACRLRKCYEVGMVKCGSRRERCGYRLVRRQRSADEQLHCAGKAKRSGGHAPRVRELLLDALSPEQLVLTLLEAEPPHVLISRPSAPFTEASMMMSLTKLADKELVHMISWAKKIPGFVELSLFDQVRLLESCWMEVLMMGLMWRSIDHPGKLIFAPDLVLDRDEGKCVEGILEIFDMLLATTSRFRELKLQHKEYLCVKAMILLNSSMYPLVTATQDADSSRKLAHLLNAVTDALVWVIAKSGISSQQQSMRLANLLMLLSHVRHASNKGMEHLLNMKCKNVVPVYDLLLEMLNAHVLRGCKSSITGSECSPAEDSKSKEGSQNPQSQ
Chain of Induced myeloid leukemia cell differentiation protein Mcl-1 (Q07820 whole entry): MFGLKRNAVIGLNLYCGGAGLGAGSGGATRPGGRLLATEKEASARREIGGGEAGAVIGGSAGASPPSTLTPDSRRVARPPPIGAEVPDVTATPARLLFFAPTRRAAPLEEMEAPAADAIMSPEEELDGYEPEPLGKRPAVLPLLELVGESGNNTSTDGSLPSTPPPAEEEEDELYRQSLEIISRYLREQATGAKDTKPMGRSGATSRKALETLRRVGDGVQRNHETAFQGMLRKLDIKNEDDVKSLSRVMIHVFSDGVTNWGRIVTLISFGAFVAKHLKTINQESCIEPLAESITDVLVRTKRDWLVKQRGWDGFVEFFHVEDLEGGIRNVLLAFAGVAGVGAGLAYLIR

As a reminder, the IC50 is the concentration that inhibits the measured activity by half. Take `COc1ccc(N2CCC(CNC(=O)Nc3cccc(OC)c3)C2)cc1` (stereo not drawn): the IC50 was 3.18 µM (not active) in [1], > 50 µM (not active) in [2] and 43.3 µM (active) at Large T antigen.

A word on the EC50: it is the midpoint of the concentration-response curve. Turning to `CCCSc1nsc(NC(=O)CC)n1`, the EC50 in experiment [3] was > 67.5 µM (inactive).

`Cc1cccn2c(CNCC3OCCc4ccccc43)c(C(=O)N3CCCCC3)nc12` (stereo not drawn): the values for the IC50 (in the experiment “cells [4]”; in experiment [5]) were > 29.9 µM (inactive) and 4.82 µM (active), respectively. The 50% effective concentration (EC50) in experiment [6] was 4.38 µM (active); in “cells [7]”, > 29.9 µM (inactive).

Take `Cc1ccc(-c2onc3ccc(C(=O)O)cc23)cc1`: in [3], the EC50 is > 67.6 µM (inactive).

As to `O=C(NCc1ccco1)c1cnc2ccc(S(=O)(=O)N3CCOCC3)cc2c1O`, the IC50 at Prothrombin is 0.943 µM (active).

For the molecule `COc1ccc(-c2cc(-c3cccs3)c(C#N)c(SCC(=O)NCc3ccco3)n2)cc1`, the IC50 on Estrogen receptor is on record as > 50 µM (not active).

Consider `COc1cc(OC)c(C2CC(=O)N3CN(C)CSC3=C2C#N)cc1OC` (stereo not drawn), for which the IC50 in experiment [2] is 23.1 µM (active); on Large T antigen, 61.1 µM (active).

Regarding `Cc1cc(C(=O)CSc2ncccn2)c(C)n1Cc1ccco1`, in experiment [3], the EC50 is > 67.5 µM (inactive).

`COc1ccc(Nc2cc(C)nc(N3CCOCC3)n2)cc1`: the IC50 (in the experiment “cells [4]”; in experiment [5]) was > 29.9 µM (inactive) in each case. For the same molecule, the EC50 in [6] is 3.33 µM (active); in the experiment “cells [7]”, > 29.9 µM (inactive).

For `CCOc1ccc(C(=O)CCN2CCCCC2)cc1`, the IC50 on Estrogen receptor beta is > 50 µM (not active).

A word on the CC50: it is the concentration that lowers cell viability or growth by half. Turning to `CC(C)C1N=C2c3ccccc3N=C(SCC(=O)c3ccc(O)c(O)c3)N2C1=O` (stereo not drawn), the IC50 is 17.7 µM (active) on Leucine aminopeptidase, 26.1 µM (active) in experiment [8] and 21.3 µM (active) on Large T antigen. For the same molecule, the CC50 in experiment [9] was 100 µM (active).

In the case of `Cc1cc(C)n(C(CC(=O)N2CCc3ccccc3C2)C(=O)O)n1` (stereo not drawn), the IC50 in experiment [10] was > 100 µM (inactive); in experiment [11], 16.5 µM (active); in the experiment “cells [4]”, > 29.9 µM (inactive); in experiment [5], 4.32 µM (active). The EC50 in experiment [6] is 1.06 µM (active); in “cells [7]”, > 29.9 µM (inactive).

Take `O=C(Oc1ccc2c(c1)OCC2=O)c1ccccc1`: at Estrogen receptor beta, the IC50 is > 50 µM (not active).

Turning to `O=C(NCc1ccccn1)c1cn(-c2ccccc2)nc1-c1ccc(Cl)cc1`, the IC50 against Prothrombin was > 50 µM (not active).

What is called AC50 is the concentration at which the activity in the assay is half-maximal. For `COc1cccc(C(=O)n2c(SC)nc3cc4c(cc32)OCCO4)c1`, the AC50 on Cytochrome P450 2C19 was 35.5 µM (inconclusive). Besides, the IC50 on Prothrombin was 0.0235 µM (active).

In the case of `CCCCCCCCN1C(=O)[C@H](CC(=O)NCCc2ccccc2OC)C[C@@]2(C(=O)OC)CCCCC=C12`, the results for the IC50 (in “cells [4]”; in experiment [5]) were > 29.9 µM (inactive) and 9.43 µM (active), respectively. Moreover, the concentration giving a half-maximal response (EC50) is 7.05 µM (active) in experiment [6] and > 29.9 µM (inactive) in the experiment “cells [7]”.

In the case of `C(=N\c1cccc2c(/N=C/c3ccco3)cccc12)/c1ccco1`, the IC50 in experiment [2] was > 50 µM (not active).

For the molecule `CC(CO)(CO)NCc1ccc(-c2ccccc2)cc1`, the concentration for half-maximal inhibition (IC50) on Prothrombin is > 50 µM (not active).

As to `CC(Nc1ccnc2cc(Cl)ccc12)c1ccc(S(N)(=O)=O)cc1` (stereo not drawn), the IC50 (in the experiment “cells [4]”; in experiment [5]) was > 29.9 µM (inactive) in each case. Also, the EC50 in experiment [6] is 14.9 µM (inactive); in “cells [7]”, > 29.9 µM (inactive).
